Laboratory results published in patent publication US12685728B2, “Anti-vertigo compound and pharmaceutical compositions thereof” (Amneal Pharmaceuticals LLC, priority 2020, dated 2026).

Columns and labels:
[1] = tested on: patients with Peripheral vertigo; test: Same clinical trial: composite score of vegetative concomitant symptoms (nausea, vomiting, sweating, tachycardia), 5-point VAS; format: in vivo, human
From the text: (§1) The current study was designed as an open label, two-treatment arm, active comparator controlled, Clinical trial in patients with Peripheral vertigo. This study involved a screening phase, randomization and treatment phase as mentioned below: • Screening phase (Visit 1): −14 to −1 day • Baseline visit and day of randomization (Visit 2): Day 0/1 • Treatment phase: Day 1 to Day 28 • End of treatment (Visit 4): Day 29±2 days
(§2) Patients with Peripheral vertigo, meeting the mentioned eligibility criteria were identified and shortlisted patients underwent screening within 14 days prior to randomization. A total of 16 patients were randomized in the ratio of 3:1 to receive the test and active comparator products (12 patients received test product and 4 patients received active comparator product). Test product was consumed as 20 mg Levocloperastine orally three times a day for 28 days. Active comparator (standard of care) was consumed by the patients as per the investigator's sole discretion and medical judgement. The standard of care treatment included Betahistine 16 mg tablets three times daily OR Betahistine 16 mg tablets three times daily plus Acetazolamide 125 mg tablets two time daily OR Cinnarizine 25 mg tablets three times daily which was given to patient.
Additionally, mean change in composite score of vegetative concomitant symptoms from baseline score was compared between two treatment arms. The absolute data and mean changes from baseline data are presented below in Table 2.

[2] = tested on: patients with Peripheral vertigo; test: Open label, active comparator controlled clinical trial: MVS score (severity of vertigo symptoms); format: in vivo, human
From the text: The MVS score, a 12-item composite score to measure the severity of vertigo symptoms, is defined as the mean intensity of 6 (unprovoked) vertigo symptoms (dysstasia and walking unsteadiness, staggering, rotary sensation, tendency to fall, lift sensation, blackout) and vertigo in consequence of 6 triggering factors [change of position (lying), bowing, getting up, driving by car/train, head movements (inclination, twist), eye movement]. The intensity of each of the 12 single symptoms is rated by the patients by means of a 5-point VAS (0=not present, 1=moderate, 2=medium, 3=strong, 4=very strong). A mean MVS serving as a measure of vertigo intensity, will be calculated by adding the scores on all 12 vertigo symptoms and dividing by 12. The scale is rated by patients directly.
as §1, §2
MVS Score: Mean change in MVS score from baseline score was compared between two treatment arms.

[3] = doses up to 450-fold higher than the therapeutic doses; cited from earlier work
[4] = tested on: patients with Peripheral vertigo; test: Same clinical trial: tolerability; format: in vivo, human; conditions: 20 mg orally three times a day for 28 days
From the text: as §1, §2

[5] = 20 mg orally three times a day for 28 days
[6] = 7 days after treatment onset [Interim visit: Day 7 + 3]
[7] = 28 days after treatment onset [end of treatment: Day 29 ± 2]

## Clc1ccc([C@@H](OCCN2CCCCC2)c2ccccc2)cc1 (racemic) [Levocloperastine]
[1]; [5]
  Alleviation of vegetative concomitant symptoms versus standard of care: statistically better in alleviating the vegetative concomitant symptoms than the standard of care treatment
[1]; [6]
  Score of vegetative concomitant symptoms, Absolute data, Mean ± SD: 0.6 ± 0.73
  Score of vegetative concomitant symptoms, Change as %: −46.15%
  Score of vegetative concomitant symptoms, Change from baseline, Mean ± SD: −0.6 ± 0.81
[1]; [7]
  Score of vegetative concomitant symptoms, Absolute data, Mean ± SD: 0.2 ± 0.47
  Score of vegetative concomitant symptoms, Change as %: −84.62%
  Score of vegetative concomitant symptoms, Change from baseline, Mean ± SD: −1.1 ± 0.98
[1]; Baseline
  Score of vegetative concomitant symptoms, Absolute data, Mean ± SD: 1.3 ± 1.05
[1]; human, in vivo
  Duration of treatment for comparable improvement in vegetative concomitant symptoms severity: about 7 days
[2]; [5]
  Efficacy on primary efficacy endpoint MVS score versus standard of care: equally efficacious in comparison to standard of care treatment
[2]; A/28 Days [Day 29 ± 2]
  MVS Score, Change from baseline, Mean ± SD: −1.1 ± 0.45
  MVS Score, Mean ± SD: 1.1 ± 0.58
[2]; A/28 Days [Day 29 ± 2] vs baseline
  MVS Score, Change as %: −50.00%
[2]; Baseline (Day 0/1)
  MVS Score, Mean ± SD: 2.2 ± 0.29
[2]; Interim visit [Day 7 + 3]
  MVS Score, Change from baseline, Mean ± SD: −0.7 ± 0.33
  MVS Score, Mean ± SD: 1.5 ± 0.49
[2]; Interim visit [Day 7 + 3] vs baseline
  MVS Score, Change as %: -31.8%
[3]
  Sedation: did not induce any clinically relevant sedation
[4]
  Tolerability: well tolerability in all patients
